In article PMC7214591, “Biotransformation of 5-hydroxymethylfurfural into 2,5-dihydroxymethylfuran by Ganoderma sessile and toxicological assessment of both compounds” (AMB Express, 2020):

Key:
[1] = Cytotoxicity test, CCK-8, 24 h; format: cell-based; settings: human, HCT-8 cells
Protocol: (§1) Cell lines HCT-8 (3111C0001CCC000104) and A549 (3131C0001000700150) were obtained from National Infrastructure of Cell Line Resource (Beijing, China). SGC-7901 cell line was purchased from Suer Shengwu (Shanghai, China). All cells maintained in a humidified atmosphere at 37 °C and 5% CO2 in RPMI 1640 supplemented with 10% FBS and 1% Penicillin–Streptomycin solution. Cells were seeded in 96-well plates at a density of 8 * 10^3 cells per well and then incubated with various concentrations of 5-HMF and DHMF (Additional file 2: Table S2) for 24 h, respectively. Subsequently, culture supernatant was removed. HCT-8 cells were incubated in 100 μL fresh basal medium and 10 μL CCK-8 solution at 37 ℃ for 2 h. The optical density (OD) value of each well was measured at 450 nm using spectrophotometer (Multiskan Go 1510, Thermo, US); A549 and SGC-7901 cells were incubated in 100 μL MTT solution (1 mg/mL) at 37 ℃ for 4 h. Subsequently, the liquid was removed and dissolved the formazan with 150 μL DMSO, and the OD value was measured at 490 nm. Cell viability was given in a percentage of the control group. All data repeated for three times.

[2] = tested on: Female Sprague–Dawley rats; assay: Acute oral toxicity assessment (OECD 423)
Protocol: The temperature in the experimental animal room was 22 ± 1 °C and the relative humidity was 60% ± 5%, additionally, lighting conditions was 12-h light/dark cycle.
Twenty-four rats were randomly divided into five groups. Six rats were in the control group as well as the high-dose groups, and three rats were in the low-dose groups. Before the experiment, all rats needed to be […] overnight. Briefly, the control group received distilled water while experimental groups were orally treated with test compounds at a single dose of 300 mg/kg 5-HMF, 300 mg/kg DHMF, 2000 mg/kg 5-HMF, and 2000 mg/kg DHMF, respectively. The animals were monitored periodically during the first 24 h, especially the opening 30 min and 4 h, after drug oral treatment for any signs of toxicity. The rats were further observed for 14 days. Moreover, the body weight was measured at the first and last day. At the end of experiment, all rats were anaesthetized and their brains, hearts, lungs, livers, kidneys, and spleens were collected, weighed and observed macroscopically.

[3] = tested on: human skin fibroblast cells; design: method as in Frade et al. [2014]; settings: ref Frade et al. [2014]; cited from earlier work
[4] = Cytotoxicity test, MTT, 24 h; format: cell-based; settings: human
Protocol: as §1

[5] = tested on: mice; design: method as in Bauer Marinovic et al. [2012]; settings: dose up to 536 mg/kg, drinking water for 12 weeks, ref Bauer Marinovic et al. [2012]; cited from earlier work
[6] = rats, 300 mg/kg single oral dose, after 14 days, n = 3
[7] = rats, 2000 mg/kg single oral dose, after 14 days, n = 6

SMILES: O=Cc1ccc(CO)o1 [5-HMF, 5-hydroxymethylfurfural]
- IC50 at 24 h [1]: 9.94 mM
- Abnormal behaviours ([2]; female, Sprague-Dawley, rat, in vivo, po, 300 mg/kg): During the first 30 min, all rats became quitter and slightly weaker than the control, and returned to normal within 1 h
- Abnormal behaviours ([2]; female, Sprague-Dawley, rat, in vivo, po, 2000 mg/kg): Rat numbered 1 emerged convulsions, lethargy, convulsions, and limb weakness during the first 30 min, showed somnolence and decrease of animal heat in the next 30 min; others only behaved a quiet symptom, all rats returned to normal within 1 h
- LD50 cut-off ([2]; rat, in vivo, po, 300 mg/kg): greater than 2000 mg/kg B.W.
- Organs index, Brain ([2]; rat, in vivo, po, 300 mg/kg): 0.74 ± 0.02 g/100 g of body weight
- Organs index, Heart ([2]; rat, in vivo, po, 300 mg/kg): 0.35 ± 0.03 g/100 g of body weight
- Organs index, Kidney ([2]; rat, in vivo, po, 300 mg/kg): 0.75 ± 0.06 g/100 g of body weight
- Organs index, Liver ([2]; rat, in vivo, po, 300 mg/kg): 3.06 ± 0.19 g/100 g of body weight
- Organs index, Lung ([2]; rat, in vivo, po, 300 mg/kg): 0.52 ± 0.02 g/100 g of body weight
- Organs index, Spleen ([2]; rat, in vivo, po, 300 mg/kg): 0.25 ± 0.01 g/100 g of body weight
- Organs index, Brain ([2]; rat, in vivo, po, 2000 mg/kg): 0.74 ± 0.05 g/100 g of body weight
- Organs index, Heart ([2]; rat, in vivo, po, 2000 mg/kg): 0.33 ± 0.02 g/100 g of body weight
- Organs index, Kidney ([2]; rat, in vivo, po, 2000 mg/kg): 0.75 ± 0.07 g/100 g of body weight
- Organs index, Liver ([2]; rat, in vivo, po, 2000 mg/kg): 2.83 ± 0.09 g/100 g of body weight
- Organs index, Lung ([2]; rat, in vivo, po, 2000 mg/kg): 0.51 ± 0.04 g/100 g of body weight
- Organs index, Spleen ([2]; rat, in vivo, po, 2000 mg/kg): 0.25 ± 0.06 g/100 g of body weight
- Mortality ([2]; rats, single oral dose 300 or 2000 mg/kg, 14-day observation): none of the rats died
- Cytotoxicity [3]: none cytotoxic
- IC50 at 24 h ([4]; A549 cells): 7.14 mM
- IC50 at 24 h ([4]; SGC-7901 cells): 8.42 mM
- Nephrotoxic effects [5]: mild nephrotoxic effects

SMILES: OCc1ccc(CO)o1 [DHMF, 2,5-dihydroxymethylfuran]
- IC50 at 24 h [1]: 26.6 mM
- Organs index, Brain [2, 6]: 0.68 ± 0.09 g/100 g of body weight
- Organs index, Heart [2, 6]: 0.32 ± 0.02 g/100 g of body weight
- Organs index, Kidney [2, 6]: 0.75 ± 0.07 g/100 g of body weight
- Organs index, Liver [2, 6]: 3.04 ± 0.26 g/100 g of body weight
- Organs index, Lung [2, 6]: 0.47 ± 0.01 g/100 g of body weight
- Organs index, Spleen [2, 6]: 0.22 ± 0.04 g/100 g of body weight
- Organs index, Brain [2, 7]: 0.79 ± 0.07 g/100 g of body weight
- Organs index, Heart [2, 7]: 0.32 ± 0.04 g/100 g of body weight
- Organs index, Kidney [2, 7]: 0.75 ± 0.06 g/100 g of body weight
- Organs index, Liver [2, 7]: 3.05 ± 0.17 g/100 g of body weight
- Organs index, Lung [2, 7]: 0.49 ± 0.03 g/100 g of body weight
- Organs index, Spleen [2, 7]: 0.22 ± 0.02 g/100 g of body weight
- Abnormal behaviours ([2]; rats, single oral dose 300 mg/kg, first 4 h, n = 3): During the first 30 min, all rats became quitter and slightly weaker than the control, and returned to normal within 1 h
- Abnormal behaviours ([2]; rats, single oral dose 2000 mg/kg, first 4 h, n = 6): In the first 30 min, all rats were more active than control, then showed lethargic and dilatoriness, yet returned to normal after 30 min
- LD50 cut-off ([2]; rats, single oral dose, OECD 423 annex 2c, starting dose 300 mg/kg): greater than 2000 mg/kg B.W.
- IC50 at 24 h ([4]; A549 cells): 0.697 mM
- IC50 at 24 h ([4]; SGC-7901 cells): 0.33 mM
